System: patients with prior myocardial infarction (CARE study)
Assay: CARE: association of SNPs with pravastatin treatment in cardiovascular events prevention (logistic regression, odds ratio pravastatin vs placebo by genotype; Table 8)
Format: in vivo, human
Conditions: for Fatal CHD/Definite Nonfatal MI, n/total (%) / Fatal/Nonfatal MI (def & prob), n/total (%) / MI (Fatal/Nonfatal), n/total (%) / Nonfatal MI (Probable/Definite), n/total (%) / Nonfatal MI (def & prob), n/total (%): GAPD hCV8921288, All Patients
Description: In order to identify genetic markers associated with acute coronary events (e.g. MI, stroke, unstable angina, congestive heart failure, etc.) or response to statin treatment for the prevention of coronary events, samples from the Cholesterol and Recurrent Events (CARE) study (a randomized multicentral double-blinded trial on secondary prevention of acute coronary events with pravastatin) (Sacks et al., 1991, Am. J. Cardiol. 68: 1436-1446) were genotyped. A well-documented myocardial infarction (MI) was one of the enrollment criteria for entry into the CARE study. Patients were enrolled in the CARE trial from 80 participating study centers. […] Patients were randomized to receive either 40 mg of pravastatin once daily or a matching placebo. The primary endpoint of the trial was death from coronary heart disease and the median duration of follow-up was 5.0 years (range, 4.0 to 6.2 years). […] Secondary endpoints of other related cardiovascular or metabolic disease events, and changes in clinical variables were also recorded in pravastatin-treated and placebo groups. All individuals included in the study had signed a written informed consent form and the study protocol was approved by the respective Institutional Review Boards (IRBs).
For genotyping SNPs in CARE patient samples, DNA was extracted from blood samples using conventional DNA extraction methods such as the QIA-amp kit from Qiagen. Genotypes were obtained on an ABI PRISM® 7900HT Sequence Detection PCR system (Applied Biosystems, Foster City, Calif.) by kinetic allele-specific PCR, similar to the method described by Germer et al. (Germer S., Holland M. J., Higuchi R. 2000, Genome Res. 10: 258-266).
Statistical analysis for association of SNPs with pravastatin treatment in cardiovascular events prevention (Table 8) was carried out using an overall logistic regression model that included an intercept, a parameter for the effect of a genotype containing two rare alleles versus a genotype containing no rare alleles, a parameter for the effect of a genotype containing one rare allele versus a genotype containing no rare alleles, a parameter for the effect of use of pravastatin versus the use of placebo, and parameters for the interaction effects between SNP genotypes and pravastatin use. The test of the overall model is a chi-square test with two degrees of freedom for analyses containing all three genotypes, and one degree of freedom for analyses containing two genotypes.
Effect sizes were estimated through odds ratios (pravastatin group versus placebo) for carriers of each genotype (groups of 0, 1, and 2 minor allele carriers). The effect was considered to be significant if p-value for testing whether any of the interactions between SNP genotypes and pravastatin use were <0.05. […] Odds ratios less than one indicate that the specific SNP allele has a protective effect and odds ratios greater than one indicate that the specific SNP allele has an adverse effect.

[1] = ELN hCV1253630, All Patients, Fatal CHD/Definite Non-fatal MI
[2] = ELN hCV1253630, All Patients, Fatal/Non-fatal MI (def & prob)
[3] = ELN hCV1253630, All Patients, Hosp. for Cardiovascular Disease
[4] = ELN hCV1253630, All Patients, Non-fatal MI (def & prob)
[5] = ELN hCV1253630, All Patients, Total Cardiovascular Disease Events
[6] = ELN hCV1253630, All Patients, Total Coronary Heart Disease Events
[7] = FCGR2A hCV9077561, All Patients, 0 Rare Alleles, Prava arm
[8] = FCGR2A hCV9077561, All Patients, 1 Rare Allele, Prava arm
[9] = FCGR2A hCV9077561, All Patients, 2 Rare Alleles, Prava arm
[10] = HLA-DPA1 hCV15760070, All Patients, Coronary Artery Bypass or Revascularization
[11] = HLA-DPA1 hCV15760070, All Patients, Total Coronary Heart Disease Events

CC[C@H](C)C(=O)O[C@H]1C[C@H](O)C=C2C=C[C@H](C)[C@H](CC[C@@H](O)C[C@@H](O)CC(=O)O)[C@H]21 [pravastatin]
Fatal CHD/Definite Non-fatal MI, n/total (%) (ELN hCV1253630, All Patients, 2 Rare Alleles, Prava, n/total 29/245): (11.8%)
Non-fatal MI (def & prob), n/total (%) (ELN hCV1253630, All Patients, 2 Rare Alleles, Prava, n/total 30/245): (12.2%)
Fatal/Non-fatal MI (def & prob), n/total (%) (ELN hCV1253630, All Patients, 2 Rare Alleles, Prava, n/total 33/245): (13.5%)
Total Coronary Heart Disease Events, n/total (%) (ELN hCV1253630, All Patients, 2 Rare Alleles, Prava, n/total 88/245): (35.9%)
Hosp. for Cardiovascular Disease, n/total (%) (ELN hCV1253630, All Patients, 2 Rare Alleles, Prava, n/total 113/245): (46.1%)
Total Cardiovascular Disease Events, n/total (%) (ELN hCV1253630, All Patients, 2 Rare Alleles, Prava, n/total 115/245): (46.9%)
Prava vs. Placebo Odds Ratio, 0 Rare Alleles [1]: 0.50
Prava vs. Placebo Odds Ratio, 1 Rare Alleles [1]: 0.75
Prava vs. Placebo Odds Ratio, 2 Rare Alleles [1]: 1.41
Prava vs. Placebo Odds Ratio, 0 Rare Alleles [2]: 0.44
Prava vs. Placebo Odds Ratio, 1 Rare Alleles [2]: 0.68
Prava vs. Placebo Odds Ratio, 2 Rare Alleles [2]: 1.63
Prava vs. Placebo Odds Ratio, 0 Rare Alleles [3]: 0.63
Prava vs. Placebo Odds Ratio, 1 Rare Alleles [3]: 0.76
Prava vs. Placebo Odds Ratio, 2 Rare Alleles [3]: 1.15
Prava vs. Placebo Odds Ratio, 0 Rare Alleles [4]: 0.50
Prava vs. Placebo Odds Ratio, 1 Rare Alleles [4]: 0.67
Prava vs. Placebo Odds Ratio, 2 Rare Alleles [4]: 1.63
Prava vs. Placebo Odds Ratio, 0 Rare Alleles [5]: 0.63
Prava vs. Placebo Odds Ratio, 1 Rare Alleles [5]: 0.75
Prava vs. Placebo Odds Ratio, 2 Rare Alleles [5]: 1.11
Prava vs. Placebo Odds Ratio, 0 Rare Alleles [6]: 0.66
Prava vs. Placebo Odds Ratio, 1 Rare Alleles [6]: 0.73
Prava vs. Placebo Odds Ratio, 2 Rare Alleles [6]: 1.26
Catheterization, n/total (%) [7]: (11.6%)
Coronary Artery Bypass or Revascularization, n/total (%) [7]: (16.1%)
Catheterization, n/total (%) [8]: (11.2%)
Coronary Artery Bypass or Revascularization, n/total (%) [8]: (14.8%)
Catheterization, n/total (%) [9]: (6.8%)
Coronary Artery Bypass or Revascularization, n/total (%) [9]: (11.8%)
Fatal CHD/Definite Nonfatal MI, n/total (%) (0 Rare Alleles, Prava arm): (10.5%)
Fatal/Nonfatal MI (def & prob), n/total (%) (0 Rare Alleles, Prava arm): (10.6%)
MI (Fatal/Nonfatal), n/total (%) (0 Rare Alleles, Prava arm): (10.9%)
Nonfatal MI (Probable/Definite), n/total (%) (0 Rare Alleles, Prava arm): (10.3%)
Nonfatal MI (def & prob), n/total (%) (0 Rare Alleles, Prava arm): (9.9%)
Fatal CHD/Definite Nonfatal MI, n/total (%) (1 Rare Allele, Prava arm): (7.4%)
Fatal/Nonfatal MI (def & prob), n/total (%) (1 Rare Allele, Prava arm): (8.7%)
MI (Fatal/Nonfatal), n/total (%) (1 Rare Allele, Prava arm): (8.7%)
Nonfatal MI (Probable/Definite), n/total (%) (1 Rare Allele, Prava arm): (8.1%)
Nonfatal MI (def & prob), n/total (%) (1 Rare Allele, Prava arm): (7.6%)
Fatal CHD/Definite Nonfatal MI, n/total (%) (2 Rare Alleles, Prava arm): (8.1%)
Fatal/Nonfatal MI (def & prob), n/total (%) (2 Rare Alleles, Prava arm): (6.5%)
MI (Fatal/Nonfatal), n/total (%) (2 Rare Alleles, Prava arm): (6.5%)
Nonfatal MI (Probable/Definite), n/total (%) (2 Rare Alleles, Prava arm): (6.5%)
Nonfatal MI (def & prob), n/total (%) (2 Rare Alleles, Prava arm): (4.8%)
Coronary Artery Bypass or Revascularization, n/total (%) (HLA-DPA1 hCV15760070, All Patients, 0 Rare Alleles, Prava, n/total 143/1019): (14.0%)
Total Coronary Heart Disease Events, n/total (%) (HLA-DPA1 hCV15760070, All Patients, 0 Rare Alleles, Prava, n/total 285/1019): (28.0%)
Coronary Artery Bypass or Revascularization, n/total (%) (HLA-DPA1 hCV15760070, All Patients, 1 Rare Allele, Prava, n/total 67/443): (15.1%)
Total Coronary Heart Disease Events, n/total (%) (HLA-DPA1 hCV15760070, All Patients, 1 Rare Allele, Prava, n/total 136/443): (30.7%)
Coronary Artery Bypass or Revascularization, n/total (%) (HLA-DPA1 hCV15760070, All Patients, 2 Rare Alleles, Prava, n/total 9/52): (17.3%)
Total Coronary Heart Disease Events, n/total (%) (HLA-DPA1 hCV15760070, All Patients, 2 Rare Alleles, Prava, n/total 21/52): (40.4%)
Prava vs. Placebo Odds Ratio, 0 Rare Alleles [10]: 0.65
Prava vs. Placebo Odds Ratio, 1 Rare Alleles [10]: 0.71
Prava vs. Placebo Odds Ratio, 2 Rare Alleles [10]: 5.65
Prava vs. Placebo Odds Ratio, 0 Rare Alleles [11]: 0.69
Prava vs. Placebo Odds Ratio, 1 Rare Alleles [11]: 0.86
Prava vs. Placebo Odds Ratio, 2 Rare Alleles [11]: 2.48
Fatal/Non-fatal MI (def & prob), n/total (%) (HLA-DPB1 hCV8851085, All Patients, 0 Rare Alleles, Prava, n/total 82/919): (8.9%)

Source: patent publication US9932637B2, “Genetic polymorphisms associated with cardiovascular disorders and drug response, methods of detection and uses thereof” (CELERA CORPORATION, priority 2003, dated 2018)
